The record followed here is patent US20260042764A1, “COMPOSITIONS AND METHODS FOR INHIBITION OF KRAS” (TheRas, Inc., priority 2022, published 2026).

The subject of assay [1] is GP2d cells (KRAS G12D). In words: Cell-based pERK HTRF assay in GP2d cell (Biological Example 2). The note with it: GP2d, GP2d (KRAS G12D) cells, pERK HTRF. Here is the method:
A pERK assay (Perkin Elmer) was used to determine the effectiveness of compounds in disrupting KRAS G12D protein/effector signaling in cells.
On Day 1, cells (GP2d) were seeded into 96-well plates at 3×10^4 cells/well in 80 μL complete growth media (DMEM, 10% FBS).
On Day 2, cells were treated with compounds at 0.25% DMSO. The source plate was created with compounds diluted in media at 5-fold the final assay concentration. The compounds were run in a 9-point concentration curve starting at 1 μM or in a 9-point concentration curve starting at 100 nM, with a half-log dilution between concentrations. Twenty μL was transferred onto the cell plates (final volume in wells was 100 μL). Plates were harvested after 60 min incubation by aspirating media and adding kit-supplied 1x supplemented lysis buffer to all wells (50 μL per well). Plates were then placed on a plate shaker and incubated at 850 rpm for an additional 30 min.
Antibody mixture solution was prepared by diluting aliquoted d2 and Eu Cryptate antibodies 1:20 in kit supplied detection buffer, and mixing the diluted antibodies solutions (1:1 v:v).
Samples were homogenized by pipetting up and down and then transferred (16 μL of cell lysates) from the 96-well cell culture plate to two wells of the HTRF 384-well detection plate containing the antibody solution. Plates were centrifuged (524 g for 1 min) and allowed to incubate between 4 and 24 h at room temperature. Maximum signal is reached after 4 h incubation time and remains stable over a period of 24 hours. Therefore, readings can be made between 4 and 24 h of incubation. Plates were centrifuged again (524 g for Imin), then analyzed on the EnVision plate reader using the following settings: Excitation 320 nm, Bandwidth 75 nm; Emission 615 nm, Bandwidth 85 nm; Gain 100%; Flashes 100; Lag 60 μs.
(In TR-FRET formats the signal depends on donor and acceptor labels being close together.)

The target in assay [2] is T1, Avi-KRAS G12D (1-169) GppNHp/RAF1 RBD-3xFLAG (52-151) (Homo sapiens, UniProt P01116, G12D).
T1 construct: Avi-KRAS G12D (1-169)
In words: Raf1-KRAS G12D-GppNHP disruption HTRF assay (Biological Example 1). It counts as binding. Conditions: KRAS G12D, GppNHp-loaded; Table 11. On the procedure:
(§1) A protein:protein interaction (PPI) Homogeneous Time Resolved Fluorescence (HTRF) assay was used to determine the effectiveness of compounds of the present disclosure in disrupting KRAS protein and effector RAF1 binding.
(§2) The assay buffer included: 50 mM Tris pH 7.5, 100 mM NaCl, 5 mM MgCl2, 0.1% BSA, 0.01% Tween, and 10% DMSO. The bead buffer included: 50 mM Tris pH 7.5, and 0.01% Tween 20. Assay volume of 20 μL was used in a 384 well plate-low volume format.
(§3) The HTRF assay employed the following protocol:
(§4) Protein mix was prepared in assay buffer, and dispensed on plates, 10 μL per well, then incubated for 1 h at room temperature, with 700 rpm shaking, Reagents mix was prepared and dispensed on plates, 10 μL per well, then incubated for 1 h at room temperature, with 700 rpm shaking.
(§5) Data was reported as percentage of activity, with DMSO as 100%. Data was plotted and analyzed using Prism 8.

Assay [3] concerns the target T2, Avi-KRAS WT (1-169) GppNHp/RAF1 RBD-3xFLAG (52-151) (Homo sapiens, UniProt P01116).
T2 construct: Avi-KRAS WT (1-169)
The assay can be described thus: Raf1-KRAS WT-GppNHP disruption HTRF assay (Biological Example 1). The assay is classed as binding. Conditions: KRAS WT, GppNHp-loaded; Table 11. Here is the method: as §1, §2, §3, §4, §5

The target of assay [4] is T3, Avi-KRAS G12V (1-169) GppNHp/RAF1 RBD-3xFLAG (52-151) (Homo sapiens, UniProt P01116, G12V).
T3 construct: Avi-KRAS G12V (1-169)
In words: Raf1-KRAS G12V-GppNHP disruption HTRF assay (Biological Example 1). Conditions: KRAS G12V, GppNHp-loaded; Table 11. It counts as binding. On the procedure: as §1, §2, §3, §4, §5

The target of assay [5] is T4, Avi-KRAS G12R (1-169) GppNHp/RAF1 RBD-3xFLAG (52-151) (Homo sapiens, UniProt P01116, G12R).
T4 construct: Avi-KRAS G12R (1-169)
The assay can be described thus: Raf1-KRAS G12R-GppNHP disruption HTRF assay (Biological Example 1). It counts as binding. The note with it: KRAS G12R, GppNHp-loaded; Table 11. Here is the method:
as §1, §2, §3, §4, §5

T4 sequence (P01116 1-169 isoform P01116-2 G12R): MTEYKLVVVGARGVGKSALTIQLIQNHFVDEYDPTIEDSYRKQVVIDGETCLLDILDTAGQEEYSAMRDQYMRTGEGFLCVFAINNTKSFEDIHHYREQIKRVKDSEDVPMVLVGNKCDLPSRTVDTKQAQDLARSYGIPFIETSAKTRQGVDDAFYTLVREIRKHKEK
T2 sequence (P01116 1-169 isoform P01116-2): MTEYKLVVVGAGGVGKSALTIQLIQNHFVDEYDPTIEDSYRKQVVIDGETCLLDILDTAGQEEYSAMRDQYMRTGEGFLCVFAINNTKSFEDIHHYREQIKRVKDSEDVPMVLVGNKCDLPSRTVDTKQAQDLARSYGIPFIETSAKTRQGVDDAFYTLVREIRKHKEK
T1 sequence (P01116 1-169 isoform P01116-2 G12D): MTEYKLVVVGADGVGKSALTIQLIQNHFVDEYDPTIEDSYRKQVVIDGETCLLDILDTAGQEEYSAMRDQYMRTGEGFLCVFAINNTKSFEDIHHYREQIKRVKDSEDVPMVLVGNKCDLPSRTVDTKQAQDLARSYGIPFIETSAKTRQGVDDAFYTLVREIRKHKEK
T3 sequence (P01116 1-169 isoform P01116-2 G12V): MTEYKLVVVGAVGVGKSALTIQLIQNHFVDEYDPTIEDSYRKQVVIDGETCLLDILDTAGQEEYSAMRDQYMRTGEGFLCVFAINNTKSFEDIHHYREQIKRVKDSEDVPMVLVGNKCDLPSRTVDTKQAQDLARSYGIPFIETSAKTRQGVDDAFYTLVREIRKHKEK

Regarding `N#Cc1c(N)sc2c(F)ccc(-c3c(C(F)(F)F)cc4c(N5CC6(CC(O)C6)C5)nc(OC[C@@]56CCCN5C[C@H](F)C6)nc4c3F)c12` [Compound 58], the 50% inhibitory concentration (IC50) in assay [1], in assay [2], in assay [3] and in assay [4] was 100 to 1000 nM in each case.

As for `Nc1nc2c(-c3c(C(F)(F)F)cc4c(N5CC(CO)C5)nc(OCC56CCCN5CCC6)nc4c3F)ccc(F)c2s1` [Compound 57], the IC50 is 1000 to 10000 nM in assay [5], 1000 to 10000 nM in assay [2], 1000 to 10000 nM in assay [3] and more than 10000 nM in assay [4].

Regarding `Nc1nc2c(-c3c(C(F)(F)F)cc4c(N5CCCC(O)C5)nc(OCC56CCCN5CCC6)nc4c3F)ccc(F)c2s1` (centres unmarked) [Compound 53], the IC50 in assay [5] is 1000 to 10000 nM; in assay [2], 1000 to 10000 nM; in assay [3] it was more than 10000 nM; in assay [4], more than 10000 nM.

Take `CN(c1nc(OC[C@@]23CCCN2C[C@H](F)C3)nc2c(F)c(-c3ccc(F)c4sc(N)c(C#N)c34)c(C(F)(F)F)cc12)[C@]1(CC#N)C[C@H](O)C1` (atropisomer, axis not shown) [Compound 249]: the IC50 fell in the range of 100 to 1000 nM in assay [5], 100 to 1000 nM in assay [2], 100 to 1000 nM in assay [3] and 1000 to 10000 nM in assay [4].

For `Nc1nc2c(-c3c(C(F)(F)F)cc4c(N5CCC(O)C5)nc(OCC56CCCN5CCC6)nc4c3F)ccc(F)c2s1` (centres unmarked) [Compound 55], the IC50 in assay [5] is more than 10000 nM; in assay [2], 1000 to 10000 nM; in assay [3], 1000 to 10000 nM; in assay [4], more than 10000 nM.

As to `CN(c1nc(OCC23CCCN2CCC3)nc2c(F)c(-c3ccc(F)c4sc(N)nc34)c(C(F)(F)F)cc12)C1CC(O)C12CCCC2` (single isomer, unassigned) [Compound 10], the IC50 in assay [5], in assay [2], in assay [3] and in assay [4] was more than 10000 nM each time.

For `CN(c1nc(OCC23CCCN2CCC3)nc2c(F)c(-c3ccc(F)c4sc(N)nc34)c(C(F)(F)F)cc12)[C@@H]1CC[C@H](O)C1` (atropisomer, axis not shown) [Compound 62], the 50% inhibitory concentration (IC50) in assay [5] was 1000 to 10000 nM; in assay [2], 1000 to 10000 nM; in assay [3], 1000 to 10000 nM; in assay [4], more than 10000 nM.

Turning to `CN(c1nc(OCC2(CN3CCOCC3)CC2)nc2c(F)c(-c3ccc(F)c4sc(N)c(C#N)c34)c(C(F)(F)F)cc12)[C@H]1C[C@@H](O)C1` (atropisomer, axis not shown) [Compound 122], the IC50 in assay [5], in assay [2], in assay [3] and in assay [4] was 100 to 1000 nM throughout.

With `CN(c1nc(OCC2(CN3CCOCC3)CC2)nc2c(F)c(-c3ccc(F)c4sc(N)nc34)c(C(F)(F)F)cc12)[C@H]1C[C@@H](O)C1` (atropisomer, axis not shown) [Compound 16], the 50% inhibitory concentration (IC50) in assay [5], in assay [2], in assay [3] and in assay [4] was 1000 to 10000 nM each time.

With `CO[C@H]1CN2CCC[C@]2(COc2nc(N(C)[C@H]3C[C@@H](O)C3)c3cc(C(F)(F)F)c(-c4ccc(F)c5sc(N)nc45)c(F)c3n2)C1` (atropisomer, axis not shown) [Compound 14], the figures for the IC50 in assay [2], in assay [3] and in assay [4] were 1000 to 10000 nM, 100 to 1000 nM and 1000 to 10000 nM, respectively.

For the compound `CN(c1nc(OCC23CCCN2CCC3)nc2c(F)c(-c3ccc(F)c4sc(N)nc34)c(C(F)(F)F)cc12)C1CC(CO)C1` (centres unmarked) [Compound 4], the IC50 in assay [5] is more than 10000 nM; in assay [2] it was 1000 to 10000 nM; in assay [3], 1000 to 10000 nM; in assay [4], more than 10000 nM.

As to `CN(c1nc(OCC23CCCN2CCC3)nc2c(F)c(-c3ccc(F)c4sc(N)nc34)c(C(F)(F)F)cc12)[C@H]1C[C@@H](O)C1` (atropisomer, axis not shown) [Compound 2], the IC50 in assay [2] fell in the range of 100 to 1000 nM; in assay [3] it was 100 to 1000 nM; in assay [4] it was 1000 to 10000 nM.

`Nc1nc2c(-c3c(C(F)(F)F)cc4c(N[C@H]5CC[C@@H](O)CC5)nc(OCC56CCCN5CCC6)nc4c3F)ccc(F)c2s1` [Compound 64]: the half-maximal inhibitory concentration (IC50) in assay [5], in assay [2], in assay [3] and in assay [4] was 1000 to 10000 nM each time.

Consider `Nc1nc2c(-c3c(C(F)(F)F)cc4c(N5CC6CCC(C5)C6O)nc(OCC56CCCN5CCC6)nc4c3F)ccc(F)c2s1` (centres unmarked) [Compound 52], for which the IC50 in assay [2], in assay [3] and in assay [4] was 1000 to 10000 nM each time.

In the case of `Nc1nc2c(-c3c(C(F)(F)F)cc4c(N[C@H]5CCC[C@@H](O)C5)nc(OCC56CCCN5CCC6)nc4c3F)ccc(F)c2s1` (atropisomer, axis not shown) [Compound 67], the concentration for half-maximal inhibition (IC50) in assay [2] is 1000 to 10000 nM; in assay [3], 1000 to 10000 nM; in assay [4] it was more than 10000 nM.

For `Nc1nc2c(-c3c(C(F)(F)F)cc4c(N[C@H]5CC[C@H](O)C5)nc(OCC56CCCN5CCC6)nc4c3F)ccc(F)c2s1` (atropisomer, axis not shown) [Compound 61], the IC50 in assay [2] is 1000 to 10000 nM; in assay [3], 1000 to 10000 nM; in assay [4] it was more than 10000 nM.

On to `CN1C[C@H](F)C[C@H]1COc1nc(N(C)[C@H]2C[C@@H](O)C2)c2cc(C(F)(F)F)c(-c3ccc(F)c4sc(N)nc34)c(F)c2n1` (atropisomer, axis not shown) [Compound 12], for which the half-inhibitory concentration (IC50) was more than 10000 nM in assay [2], 1000 to 10000 nM in assay [3] and more than 10000 nM in assay [4].

On to `CN(c1nc(OC[C@@]23CCCN2C[C@H](F)C3)nc2c(F)c(-c3ccc(F)c4sc(N)c(C#N)c34)c(C(F)(F)F)cc12)[C@H]1C[C@@H](F)C1` (atropisomer, axis not shown) [Compound 160], for which the IC50 in assay [5] was 100 to 1000 nM; in assay [2], 100 to 1000 nM; in assay [3], 100 to 1000 nM; in assay [4], 1000 to 10000 nM.

As for `Nc1nc2c(-c3c(C(F)(F)F)cc4c(NC[C@@H]5CC[C@H](CO)C5)nc(OCC56CCCN5CCC6)nc4c3F)ccc(F)c2s1` [Compound 68], the IC50 was more than 10000 nM in assay [5], more than 10000 nM in assay [2], more than 10000 nM in assay [3] and 1000 to 10000 nM in assay [4].

Take `Nc1nc2c(-c3c(C(F)(F)F)cc4c(N5CCC(O)CC5)nc(OCC56CCCN5CCC6)nc4c3F)ccc(F)c2s1` [Compound 51]: the IC50 in assay [2] was 1000 to 10000 nM; in assay [3] it was 1000 to 10000 nM; in assay [4], more than 10000 nM.

In the case of `CN(c1nc(OCC23CCCN2CCC3)nc2c(F)c(-c3ccc(F)c4sc(N)nc34)c(C(F)(F)F)cc12)[C@H]1C[C@H](CO)C1` (atropisomer, axis not shown) [Compound 1], the IC50 in assay [2] was 1000 to 10000 nM; in assay [3], 1000 to 10000 nM; in assay [4], more than 10000 nM.

`CN(c1nc(OCC23CCCN2CCC3)nc2c(F)c(-c3ccc(F)c4sc(N)nc34)c(-c3ccoc3)cc12)[C@H]1C[C@@H](O)C1` [Compound 6]: the IC50 is 1000 to 10000 nM in assay [2], 1000 to 10000 nM in assay [3] and more than 10000 nM in assay [4].

As to `CN(c1nc(OC[C@@]23CCCN2C[C@H](F)C3)nc2c(F)c(-c3ccc(F)c4sc(N)nc34)c(C(F)(F)F)cc12)[C@H]1C[C@@H](O)C1` (atropisomer, axis not shown) [Compound 8], the concentration for half-maximal inhibition (IC50) was 1000 to 10000 nM in assay [5], 100 to 1000 nM in assay [2], 100 to 1000 nM in assay [3] and 100 to 1000 nM in assay [4].

Consider `Nc1nc2c(-c3c(C(F)(F)F)cc4c(N[C@H]5CC[C@H](O)CC5)nc(OCC56CCCN5CCC6)nc4c3F)ccc(F)c2s1` [Compound 63], for which the IC50 in assay [2] was 1000 to 10000 nM; in assay [3], 1000 to 10000 nM; in assay [4] it was more than 10000 nM.

For orientation: IC50 means the midpoint of a concentration-inhibition curve.
